Tests used:
Format in all cases: cell-based
[1] = system: Bacillus subtilis MB-32; experiment: Agar dilution method microbicidal test; as to Growth on agar plate: key: +: grew; −: did not grow
Experimental: (§1) As microbicidal test method for trans-p-coumaric acid, 3-hydroxypyridine, p-hydroxybenzaldehyde and vanillin, the agar dilution method was employed.
(§2) In agar dilution method, a solution in which a sample is dissolved is serially diluted several times, and each of the diluted sample solutions is mixed with agar medium to prepare plate agars having various sample concentration. Then bacteria is inoculated onto the plate agars. In cases where the sample has a microbicidal activity, the growth of the bacteria on the plates can be inhibited. The lowest concentration which can inhibit the growth of the bacteria is referred to as Minimum Inhibitory Concentration (MIC), thereby judging the degree of a microbicidal activity of the sample.
(§3) First, 400 mg of sample was dissolved in 1 mL of DMSO to prepare 400 mg/mL sample solution. Then 0.5 mL of this 400 mg/mL sample solution was diluted 2-fold to prepare 200 mg/mL sample solution. In the same manner, sample solutions of 100 mg/mL, 50.0 mg/mL, and 25.0 mg/mL were prepared. In addition, 300 mg/mL sample solution was prepared. Thereafter, 0.2 mL of these sample solutions each was mixed with 19.8 mL of BHI (Brain Heart Infusion Agar, Becton Dickinson, MD) medium, thereby preparing agar plates having the sample concentration of 4.0 mg/mL, 3.0 mg/mL, 2.0 mg/mL, 1.0 mg/mL, 0.5 mg/mL, and 0.25 mg/mL in dishes. […] Sterilized water was used for dissolving catechin, because catechin was insoluble in DMSO.
(§4) As test bacteria, 13 kinds of bacteria, i.e., Streptococcus pneumoniae, Streptococcus pyogenes, Enterococcus faecalis, Staphylococcus aureus, Escherichia coli, Salmonella sp., Yersinia enterocolitica, Vibrio parahaemolyticus, Pseudomonas aeruginosa, Bacillus cereus, Bacillus subtilis MB-32, Bacillus subtilis ATCC6633, and Candida sp., were used. These bacteria each was mixed with 2 mL of sterilized MHB^R liquid medium (Mueller Hinton Broth^R, Becton Dickinson, MD) to prepare bacterial suspension having turbidity 1 (bacterial concentration 10^8/mL). Previously, small test tubes were set into each cell of a grating and sterilized, and 1 mL of 13 bacterial suspensions were added into the small test tubes set in the grating, respectively. By using a microplanter (SAKUMA, model: MIT-P), 10 μL aliquot was collected from each test tube set in the grating and transferred to other test tube, and the transferred bacterial suspensions were diluted 100-fold (bacterial concentration 10^6/mL).
(§5) By using the microplanter, 10 μL (bacterial number […]) of this bacterial suspension was inoculated onto the plates containing the sample solution of various concentrations. The plates were incubated for 18 hours in an incubator at 37° C., and then a microbicidal activity of each compound was assessed.

[2] = system: Enterococcus faecalis; experiment: Agar dilution method microbicidal test; also: key: +: grew; −: did not grow
Experimental: as §1, §2, §3, §4, §5

[3] = system: Salmonella sp.; experiment: Agar dilution method microbicidal test; as to Growth on agar plate: key: +: grew; −: did not grow
Experimental: as §1, §2, §3, §4, §5

[4] = system: Staphylococcus aureus; experiment: Agar dilution method microbicidal test; as to Growth on agar plate: key: +: grew; −: did not grow
Experimental: as §1, §2, §3, §4, §5

[5] = system: Vibrio parahaemolyticus; experiment: Agar dilution method microbicidal test; as to Growth on agar plate: key: +: grew; −: did not grow
Experimental: as §1, §2, §3, §4, §5

[6] = system: Yersinia enterocolitica; experiment: Agar dilution method microbicidal test; as to Growth on agar plate: key: +: grew; −: did not grow
Experimental: as §1, §2, §3, §4, §5

[7] = system: Yersinia enterocolitica; experiment: Paper disk method microbicidal test; conditions: 2.5 mg/mL solution on 8.12 mm paper disk, 0 mg/mL control: 15.65 (flavone, 40% DMSO), — (catechin)
Experimental: As microbicidal test method for 5,7,4′-trihydroxy-3′,5′-dimethoxyflavone, the paper disk method was employed, by which method the microbicidal activity can be judged even in cases where a solvent has some influences.
In paper disk method, sample solutions having various sample concentration are prepared, and the sample solution was absorbed in a special paper disk, followed by drying the paper disk. Onto the plate which is made by mixing a prepared bacterial suspension with agar medium, the paper disks are placed. If the sample has a microbicidal activity, the inhibition ring which indicates the inhibition of bacterial growth is formed such that the center of the ring is coincident with the paper disk. The degree of a microbicidal activity is judged based on the size of the inhibition ring.
First, 4 mg of 5,7,4′-trihydroxy-3′,5′-dimethoxyflavone sample was dissolved in 200 μL to prepare 20 mg/mL sample solution. To 100 μL of this 20 mg/mL sample solution, 100 μL of sterilized water was added to prepare 200 μL of 10 mg/mL sample solution. To the solution, 60 μL DMSO and 140 μL of sterilized water were added to prepare 400 μL of 5.0 mg/mL sample solution. DMSO was used in the concentration of 40%, because the sample precipitated from 30% DMSO. To 350 μL of 5.0 mg/mL sample solution, 140 μL DMSO and 210 μL of sterilized water were added to prepare 700 μL of 2.5 mg/mL sample solution. In the same manner, 1.25 mg/mL and 0.625 mg/mL sample solutions were prepared. As a control, a solution containing 40% DMSO and 60% sterilized water was prepared. […] In a paper disk (8.12 mm diameter), 70 μL of these solutions each was absorbed, and the paper disks were dried for a day.
As test bacteria, Staphylococcus aureus, Salmonella sp., Yersinia enterocolitica, Pseudomonas aeruginosa, and Candida sp. were used. These bacteria were mixed with 2 mL of sterilized water to prepare bacterial suspensions having turbidity 1 (10^8/mL). The plate agar was made by mixing 0.2 mL of the bacterial suspension with 19.8 mL of BHI medium. The dried paper disk was placed onto the plate agar, and the plate was incubated in an incubator at 37° C., followed by assessing the activity. In the Table, (-) represents that no microbicidal activity was observed.

catechin [reference compound]
1000 µg/mL: MIC ([4]; BHI agar, 37° C., 18 hours) | MIC ([6]; BHI agar, 37° C., 18 hours)
+: Growth on agar plate ([1]; 0.25 mg/mL) | Growth on agar plate ([1]; 0.5 mg/mL) | Growth on agar plate ([1]; 1.0 mg/mL) | Growth on agar plate ([2]; 0.25 mg/mL) | Growth on agar plate ([2]; 0.5 mg/mL) | Growth on agar plate ([2]; 1.0 mg/mL) | Growth on agar plate ([2]; 2.0 mg/mL) | Growth on agar plate ([2]; 3.0 mg/mL) | Growth on agar plate ([2]; 4.0 mg/mL) | Growth on agar plate ([3]; 0.25 mg/mL) | Growth on agar plate ([3]; 0.5 mg/mL) | Growth on agar plate ([3]; 1.0 mg/mL) | Growth on agar plate ([4]; 0.25 mg/mL) | Growth on agar plate ([4]; 0.5 mg/mL) | Growth on agar plate ([5]; 0.25 mg/mL) | Growth on agar plate ([6]; 0.25 mg/mL) | Growth on agar plate ([6]; 0.5 mg/mL)
9.49: size of the inhibition ring [7]
2000 µg/mL: MIC ([1]; BHI agar, 37° C., 18 hours) | MIC ([3]; BHI agar, 37° C., 18 hours)
500 µg/mL: MIC ([5]; BHI agar, 37° C., 18 hours)
−: Growth on agar plate ([1]; 2.0 mg/mL) | Growth on agar plate ([1]; 3.0 mg/mL) | Growth on agar plate ([1]; 4.0 mg/mL) | Growth on agar plate ([3]; 2.0 mg/mL) | Growth on agar plate ([3]; 3.0 mg/mL) | Growth on agar plate ([3]; 4.0 mg/mL) | Growth on agar plate ([4]; 1.0 mg/mL) | Growth on agar plate ([4]; 2.0 mg/mL) | Growth on agar plate ([4]; 3.0 mg/mL) | Growth on agar plate ([4]; 4.0 mg/mL) | Growth on agar plate ([5]; 0.5 mg/mL) | Growth on agar plate ([5]; 1.0 mg/mL) | Growth on agar plate ([5]; 2.0 mg/mL) | Growth on agar plate ([5]; 3.0 mg/mL) | Growth on agar plate ([5]; 4.0 mg/mL) | Growth on agar plate ([6]; 1.0 mg/mL) | Growth on agar plate ([6]; 2.0 mg/mL) | Growth on agar plate ([6]; 3.0 mg/mL) | Growth on agar plate ([6]; 4.0 mg/mL)

Reference: patent publication US20100190846A1, “MICROBICIDAL AGENT AND MICROBICIDAL COMPOSITION” (priority 2006, published 2010)
